From the OPERA property sets (Mansouri et al. 2018) come the findings set out here.

Molecules are shown by their SMILES.

Details in the first data set: not given
As a reminder, the boiling point is the temperature at which the vapour pressure of the liquid equals the pressure above it. One may read the melting point as the temperature of the solid-liquid transition. On to `CCCCCCC(=O)CCC`, for which the boiling point stood at 206 °C and the melting point was -9 °C. Turning to `CC(=O)OO`, the boiling point worked out at 110 °C, the log10 Henry constant (atm·m³/mol) was -5.67, the log10 vapour pressure (mmHg) is 1.16 and the melting point was -0.2 °C. In the case of `CC=C(C)C(C)C`, the log10 vapour pressure (mmHg) was 1.83. Turning to `COC(=O)c1cc(OC)c(OC)c(OC)c1`, the boiling point was 274 °C and the melting point was determined as 83 °C. Molecule `CCCCCCCCCCCCCC(=O)OCc1ccccc1` displayed a melting point of 20.5 °C. In turn, `CC1=NNC(=O)N(/N=C/c2cccnc2)C1` yielded a melting point of 217 °C. For the molecule `Fc1ccc(-c2ccccc2)cc1`, the boiling point worked out at 253 °C and the melting point is 74.2 °C. For `O=C1CCc2ccccc2N1`, the melting point is 164 °C. Consider `COc1cc2c(cc1OC)C(=O)NCC2`, for which the melting point was determined as 175 °C.

On to `c1ccc(-c2cccc(-c3ccccc3)c2)cc1`, for which the boiling point was found to be 363 °C, the log10 vapour pressure (mmHg) is -4.76 and the melting point was determined as 87 °C.

On to `CCC(C)OC(C)=O` (stereo not given), for which the boiling point came out at 112 °C, the log10 vapour pressure (mmHg) worked out at 1.23, the melting point was -98.9 °C and the ready biodegradability entry is recorded as “readily biodegradable”. Turning to `CC(C)OC(=O)C(=O)OC(C)C`, the boiling point came to 191 °C. Regarding `C=CC(CC)CC`, the boiling point came to 84.1 °C, the log10 vapour pressure (mmHg) was 1.91 and the melting point is -128 °C. On to `COC1CCC=CO1` (stereo not given), for which the boiling point amounted to 118 °C, the log10 vapour pressure (mmHg) is 1.04 and the melting point was 16 °C.

In turn, `C[C@@H]1O[C@@H](Oc2c(-c3ccc(O)c(O)c3)oc3cc(O)cc(O)c3c2=O)[C@H](O)[C@H](O)[C@H]1O` came in with a melting point of 170 °C. The molecule `Cl.NCc1ccccc1` gave a melting point of 262 °C. On to `Brc1ccc(-c2ccccc2)cc1`, for which the boiling point was 310 °C, the log10 vapour pressure (mmHg) was -2.63, the melting point turned out to be 91.5 °C and the ready biodegradability entry was “readily biodegradable”. Molecule `CCC(=O)CC(C)C` displayed a boiling point of 135 °C. With `CCN(CC)CCOC(=O)c1ccc(N)cc1Cl.Cl`, the melting point is 177 °C.

The molecule `CC(C)CCC[C@@H](C)[C@H]1CC[C@H]2[C@@H]3CCC4=C[C@@H](O)CC[C@]4(C)[C@H]3CC[C@]12C` returned a melting point of 132 °C. Regarding `C#CC(C)(C)N`, the boiling point amounted to 79.5 °C and the melting point is 18 °C. Turning to `C=CC#N`, the boiling point was determined as 77.3 °C, the log10 Henry constant (atm·m³/mol) was -3.86, the log10 vapour pressure (mmHg) is 2.04 and the melting point is -83.5 °C. Moreover, the ready biodegradability result is “readily biodegradable”. In the case of `CCC(C)CCC(C)CC` (stereo not given), the boiling point was determined as 161 °C. For the molecule `Cl[C@H]1CC[C@@H](Cl)CC1`, the melting point came to 18 °C.

As for `N#CCCO`, the boiling point amounted to 221 °C, the log10 vapour pressure (mmHg) was -1.1 and the melting point was -46 °C. Turning to `Fc1cc(F)c(F)c(F)c1F`, the boiling point was 85.7 °C, the log10 vapour pressure (mmHg) was 1.83 and the melting point is -47.3 °C. `CCC1(c2ccccc2)CCC(=O)NC1=O` (stereo not given) yielded a melting point of 84 °C. Turning to `CC(C)Nc1ccc(Nc2ccccc2)cc1`, the melting point worked out at 74 °C and the ready biodegradability entry is “not readily biodegradable”.

As for `O=CNC(N1CCN(C(NC=O)C(Cl)(Cl)Cl)CC1)C(Cl)(Cl)Cl` (stereo not given), the log10 Koc (L/kg) turned out to be 2.3 and the log10 vapour pressure (mmHg) was -6.7. Turning to `CN1CCC(CCCC2CCN(C)CC2)CC1`, the melting point was determined as 13.7 °C. Turning to `CCC=C(C)C=C(C)C`, the boiling point came out at 138 °C.

On to `O=C(Oc1ccccc1)Oc1ccccc1`, for which the boiling point was found to be 306 °C, the log10 vapour pressure (mmHg) was -3.82 and the melting point amounted to 83 °C. Consider `CCCNCCO`, for which the boiling point was determined as 183 °C. `CC1(C)C(C=C(Cl)Cl)C1C(=O)OC(C#N)c1cccc(Oc2ccccc2)c1` (stereo not given) registered a log10 Koc (L/kg) of 5 and a melting point of 81.3 °C. Molecule `Cc1cnc2ccccc2n1` had a boiling point of 244 °C and a melting point of 180 °C. Take `CC(=O)OCCO`: the boiling point was determined as 188 °C.

The molecule `CC(C)(C)[N+](=O)[O-]` displayed a boiling point of 127 °C, a log10 vapour pressure (mmHg) of 1.08 and a melting point of 26.2 °C. As for `CC(=O)CC(=O)C(=O)O`, the melting point was found to be 99.5 °C.

Consider `CCCCCC(O)CCCCC`, for which the boiling point stood at 228 °C and the melting point stood at 25 °C.

As for `CN1C(=O)OC(C)(C)C1=O`, the melting point was 46 °C. On the same count and under the same terms, the same measure for `Nc1ccccc1C(=O)OCC=Cc1ccccc1`: 61 °C; for `Cc1cc(N)ncn1`: 197 °C. `O=[N+]([O-])c1ccc(Br)cc1`: the boiling point worked out at 256 °C, the log10 Koc (L/kg) was found to be 2.42 and the melting point is 127 °C. Regarding `CC(C)(O)C#N`, the boiling point is 171 °C, the log10 vapour pressure (mmHg) is -0.467, the melting point is -19 °C and the ready biodegradability result is “readily biodegradable”.

As to `O=C1NC(=O)c2cc([N+](=O)[O-])ccc21`, the melting point was 201 °C.

The same data set, now with this note: fish.
Molecule `S=C(NC1CCCCC1)NC1CCCCC1` registered a log10 BCF of 0.64. In turn, `FC(Cl)(Cl)C(F)(Cl)Cl` gave a log10 BCF of 1.77. In the case of `Clc1ccc(Oc2ccc(Cl)cc2Cl)cc1`, the log10 biotransformation half-life (days) was found to be 1.72. Molecule `CC1(C)C(C=C(Cl)Cl)C1C(=O)OC(C#N)c1cccc(Oc2ccccc2)c1` (stereo not given) returned a log10 BCF of 2.53.
